Patent US20250339542A1, “CONVERSION OF A BIOLOGICALLY SILENT MIRNA BINDING SMALL MOLECULE TO AN MIRNA DEGRADER” (University of Florida Research Foundation, Incorporated, priority 2020, published 2025)
pIC50: −log10 of the molar value. “And” between values parts separate entries of the source, which are not always exact repeats. Identical values can stand only once. “Also recorded” adds a separate entry of the source. Each block holds one compound with its values, some of them ahead of it.

Assays:
3×3 ILL = assay: 2DCS with HiT-StARTS fitness ranking of bound RNA motifs; format: binding
Protocol: 2DCS: Primary Screening. The microarrays were constructed as previously described.^10 Microarrays were by coating glass plates with 25 mL of molten 1% agarose and allowing it to set for 2 h. After setting, the plates were pinned with compound using a Biomek® NX robotic pintool, pinning 100 nL of each compound. The array was dried in a fume hood overnight and then washed in 1× FB supplemented with 0.1% (v/v) Tween-20 and then Nano pure water two times each followed by air drying on the bench top. Once dried, 200 pmol of radiolabeled 3×3 ILL was added to 0.5 mL of 1× FB and folded by heating to 95° C. for 1 min and then cooling to room temperature slowly on the benchtop. Magnesium chloride was added after cooling. Once cooled the solution was brought to a volume of 2.5 mL with 1× FB. The microarrays were pre-hybridized with 1× HB for 5 min and the excess buffer was removed by touching the edge with a Kimwipe. The arrays were then Hybridized with the RNA for 30 min, spreading the solution evenly over the surface with parafilm. After hybridization, the array was washed four times with 1× HB followed by air drying and imaging by autoradiography. Hits were identified as signals with an intensity greater than 3-fold over background radiation on the array. Positive control compounds Mitoxantrone was present on all arrays.
2DCS: tRNA Counter Screen. To remove non-specific RNA binders hits identified above were subjected to competitive screening with cold yeast tRNA. The assay was carried out as previously described.^10 Briefly, arrays were constructed on Inkjet Superfrost microscope slides (Fisher) by applying 2 mL of molten 1% agarose onto each slide and curing them for 2 h. Once cured, 200 nL of each compound was spotted onto each plate and the plates dried overnight as previously described. After drying, the slides were washed three times for 5 min each with nano pure water and dried under a stream of compressed air. The slides were then pre-hybridized with 1× HB for 5 min, and then incubated with 100 pmol of folded hot RNA and tRNA (1× relative to the total moles of compound spotted) in 0.4 mL of 1× FB for 30 min. The slides were then washed with 1× HB five times, air dried, and imaged to identify library specific binders. […]
In these equations n1 is the observed reads for all selected RNAs in the RNA-seq data; n2 is the total reads observed for the starting library; p1 is the proportion of the reads for a particular sequence to the total reads in the selected library; p2 is the proportion of the reads for a particular sequence to the total reads of the starting library. We can then use Zobs to rank each sequence, and therefore each RNA motif, by its affinity or fitness which is calculated according to equation (5) below described previously:^10 […]

pre-miR-155 [1] = assay: Chem-CLIP and competitive Chem-CLIP of pre-miR-155 in MDA-MB-231 cells; format: cell-based, human; settings: for enrichment of pre-miR-155 in pulled down fractions (Chem-CLIP): 1×10^−7 M (100 nM)
Protocol: Cellular Chem-CLIP and Competitive-Chem-CLIP of pre-miR-155. MDA-MB-231 cells at 80% confluency in 100 mm dish were treated with Chem-CLIP probe at the indicated concentration overnight. Then cells were washed with DPBS and harvested by scrapping. Total RNA was extracted by using the miRNeasy mini kit (Qiagen) according to the manufacture's protocol. Then, 50 g of total RNA was treated to 150 L of Dynabeads MyOne Streptavidin C1 (Invitrogen) slurry in 500 L of 1×DNA buffer (8.0 mM Na2PO4, 185 mM NaCl, pH=7.0) and shaked for 6 h. The beads then captured on a Magnetic rack and washed with DPBS for 4 times. The bound RNA was then cleaved from beads in 150 μL of 95% formamide with 10 mM EDTA at 95° C. for 30 min. Released RNA was then cleaned up by Zymo Quick-RNA MiniPrep kit per the manufacture's protocol. RT-qPCR was carried out on pre-miR-155 as previously described above by using 10 ng of input cDNA from before and after pulldown RNA samples. Enrichment of pre-miR-155 was calculated as previously reported^15. Competitive Chem-CLIP was completed by pre-treating MDA-MB-231 cells with compound B for 2 h followed by dosing of Chem-CLIP at 100 nM overnight. Sample preparation and data analysis were performed as for Chem-CLIP.

pre-miR-155 [2] = assay: RT-qPCR of pre-miR-155 levels in MDA-MB-231 cells; format: cell-based, human; settings: MDA-MB-231 cells
Protocol: (§1) Tissue Culture. MDA-MB-231 cells were obtained from ATCC (HTB-26) and cultured in RPMI medium with […] & 25 mM HEPES (Corning) supplemented with 10% FBS (sigma). MCF-10a cells were obtained from ATCC(CRL-10317) and cultured in DMEM/F12 50/50 with glutamine and 15 mM HEPES(Corning) containing 20% FBS(Sigma), 1×Antibiotic-Antimycotic(Corning), 20 ng/mL of human epidermal growth factor(Pepro Tech Inc.), 100 μg/mL of insulin and […] of hydrocortisone (Pfizer &Bauer). HUVECs were cultured in EGM (Lonza) made using the EGM-2 bullet kit (Lonza) per the manufacturers protocol.
(§2) RT-qPCR analysis for Mature, Primary and Precursor miRNAs and mRNA levels. After compound treatment for the indicated time (MDA-MB-231 48 h and HUVECs 24 h), total RNA was extracted using the Zymo Quick-RNA mini prep kit according to the manufacturers protocol. Reverse Transcription (RT) for microRNAs and pri- and pre-miR-155 were done on 200 ng of RNA using the miScript II RT kit (Qiagen) according to the manufacturer's protocol. The mRNAs were done using QScript (Quanta Bio) on 200 ng of total RNA according to the manufacturer's protocol. RT-qPCR was done as mentioned above. The obtained data was analyzed by using the ΔΔCt method as described previously. For the washout experiment, MDA-MB-231 cells were treated with 3 for 48 h. Then the media was changed with fresh growth medium without compound and the cells incubated for 12, 24 and 36 h with RNA harvested and pre-miR-155 levels analyzed as described above.
(§3) RT-qPCR analysis for Mature, Primary and Precursor miRNAs and mRNA levels part. Relative RNA expression was determined by using ΔΔCt method with 18S rRNA as an internal control. Normalized fold change was calculated with the equation as below: […]

GC paired control = assay: MST binding to GC paired control; settings: microscale thermophoresis
Protocol: (§4) Microscale thermophoresis study of binding. Binding constants were measured by MST using premium capillaries (Nanotemper) using serial dilations of compound from 50 μM to 1 nM in 1:2 dilutions. RNA-Cy5-155-A (20 nM) or Cy5-155-AU (20 nM), Cy5-155-C(20 nM), and Cy5-155-GC (20 nM) were annealed in 2×DNA buffer by heating at 70° C. with cooling to room temperature on the bench. Then the 2× compound and 2× RNA solutions were mixed together in a 1:1 ratio and allowed to equilibrate at room temperature for 10 min. Then, the capillaries were loaded and run on a […] under previously described conditions.^14 MST power was set to 40% and the LED power was set to 3%.

[3] = molecular target: pre-miR-155's 5′GAU/3′C_A bulge; assay: Microscale thermophoresis (MST) binding to pre-miR-155 A bulge; set-up: species or system human
Protocol: as §4

[4] = system: pre-miR-155's C-bulge (5′UCG/3′A_U); assay: MST binding to pre-miR-155 C bulge; set-up: species or system human; settings: microscale thermophoresis
Protocol: as §4

pre-miR-155 [5] = assay: RT-qPCR of pre-miR-155 levels in HUVECs; format: cell-based, human
Protocol: as §1, §2

miR-155 [6] = assay: RT-qPCR of miR-155 levels in HUVECs; format: cell-based, human
Protocol: as §1, §2

miR-155 [7] = assay: RT-qPCR of mature miR-155 levels in MDA-MB-231 cells; format: cell-based, human; settings: 48 h
Protocol: as §1, §2, §3

base paired control RNA = assay: MST binding to base paired control RNA (A bulge mutated to AU pair); settings: microscale thermophoresis
Protocol: as §4

pre-miR-155 [8] = assay: In vitro RNase L cleavage assay of pre-miR-155; format: biochemical, human
Protocol: pre-miR-155 was then incubated with compound 3 in vitro in an RNase L cleavage assay.
PCR amplification and transcription of DNA templates. PCR amplification of DNA templates of pre-miR-155 and mutants were performed using the pre-miR-155 forward primer containing T7 RNA polymerase promoter and a reverse primer common to both the pre-miR-155 Wild type and Mutant templates. The sequence of Oligonucleotides used in this study can be found in Table 4. PCR amplification was carried out in 350 μL of 1× PCR buffer (10 mM Tris-HCl, pH 9.0, 50 mM KCl, and 0.1% (v/v) Triton X-100), 0.33 mM dNTPs, 4.25 mM MgCl2, 2 μM of each primer(100 μM), and 1.7 μL of Taq DNA polymerase. Thermocycling was done for 35 cycles at 95° C. for 30 s, 55° C. for 30 s, and 72° C. for 60 s. PCR products were confirmed by a 2.5% Agarose Gel stained with ethidium bromide before in vitro transcription. In vitro RNA transcription for the target RNAs were carried out using house made reagents as described previously.^11

Compound: Cc1cc(C)c(-n2c[n+](-c3c(C)cc(C)cc3C)c3c2C[C@@]2(C)[C@@H](CC[C@@H]4[C@@H]2CC[C@]2(C)[C@@H]([C@H](C)CCCC(C)C)CC[C@@H]42)C3)c(C)c1 [Compound C11]
Fitness Score of the next motif (3×3 ILL): 56% | fitness score of highest affinity interaction, alternating (AU)(UA) pairs (3×3 ILL): 100%

pIC50 (pre-miR-155 [1]; Homo sapiens, 6 held constant at 1×10^−7 M, read-out: IC50 of reduction of pre-miR-155 enrichment (C-Chem-CLIP)): 7.00 | Kd [3]: 490 ± 122 nM
Compound: CCCCCCCCCCCc1c(CCCCCCCCCCC)[n+](-c2c(C(C)C)cccc2C(C)C)cn1-c1c(C(C)C)cccc1C(C)C [Compound 1]
concentration of 1 giving complete ablation of cleavage by 3 (pre-miR-155 [2]; co-treated with 3 at 1×10^−7 M, mature, pre- and pri-miR-155): 1000 nM | binding to GC paired control (GC paired control): Neither compound (1 or 2) had any affinity | binding to C bulge [4]: Neither compound (1 or 2) had any affinity; also recorded: Neither molecule showed significant binding | effect on pre-miR-155 levels (pre-miR-155 [5]): no effect | competition of cleavage by 3 (pre-miR-155 [5]; 3 at 1×10^−8 M, 1 at 1×10^−7 and 1×10^−6 M): dose dependently reduced cleavage | effect on miR-155 levels (miR-155 [6]): no effect | effect on miR-155 levels / miR-155 biogenesis (miR-155 [7]): no effect; also recorded: unable to inhibit | binding to base paired control RNA (base paired control RNA): no binding; also recorded: Neither molecule showed significant binding

Compound: CCOC(=O)C1=C(Nc2ccccc2)S/C(=C\c2ccc(OCCOCCOCCOCCNC(C)=O)c(O)c2)C1=O [Compound 4]
cleavage of pre-miR-155 (pre-miR-155 [8]): no significant cleavage; also recorded: unable to cleave | effect on miR-155 levels / miR-155 biogenesis (miR-155 [7]): no effect; also recorded: does not affect

Compound: CCCCCCCCCCCc1c(CCCCCCCCCCC)[n+](C)c(CCCO)n1C [Compound C7]
Fitness Score of the next motif (3×3 ILL): 46% | fitness score of highest affinity interaction, alternating (AU)(UA) pairs (3×3 ILL): 100%

Kd [3]: 552 ± 120 nM
Compound: CCCNC(=O)CCc1c(C)n(-c2c(C(C)C)cccc2C(C)C)c[n+]1-c1c(C(C)C)cccc1C(C)C [Compound 2]
effect on pre-miR-155 levels (pre-miR-155 [2]): no effect | binding to GC paired control (GC paired control): Neither compound (1 or 2) had any affinity | binding to C bulge [4]: Neither compound (1 or 2) had any affinity; also recorded: Neither molecule showed significant binding | effect on miR-155 levels / miR-155 biogenesis (miR-155 [7]): no effect | binding to base paired control RNA (base paired control RNA): no affinity; also recorded: ablated binding; also recorded: Neither molecule showed significant binding

Compound: CC(=O)NCCCC[C@H](NC(=O)CCCc1ccc(N(CCCl)CCCl)cc1)C(=O)NCCNC(=O)CCCCC1SCC2NC(=O)NC21 (stereo partly drawn) [Compound 7]
enrichment of pre-miR-155 in pulled down fractions (Chem-CLIP) (pre-miR-155 [1]): no enrichment; also recorded: unable to pull down

Compound: Cc1c(CCC(=O)NCCCC[C@H](NC(=O)CCCc2ccc(N(CCCl)CCCl)cc2)C(=O)NCCNC(=O)CCCCC2SCC3NC(=O)NC32)[n+](-c2c(C(C)C)cccc2C(C)C)cn1-c1c(C(C)C)cccc1C(C)C (stereo partly drawn) [Compound 6]
enrichment of pre-miR-155 in pulled down fractions (Chem-CLIP) (pre-miR-155 [1]): 4 fold and 7 fold
